Data as given in patent publication US20250387369A1 (priority 2022, published 2025).

Assays:
[1] = tested on: type A influenza virus (H1N1 subtype); assay: microbe, parasite or virus in culture; type: cell-based; details: H1N1, Calu-3, 48 h
[2] = tested on: Ebola virus-derived trVLP; assay: microbe, parasite or virus in culture; type: cell-based; details: Zaire ebolavirus, Huh-7, 48 h

SMILES	IC50 [1] [µM]	IC50 [2] [µM]
NC(=O)c1nc(F)c[nH]c1=O [Favipiravir]	9.5	–
CCC(CC)COC(=O)[C@H](C)N[P@](=O)(OC[C@H]1O[C@@](C#N)(c2ccc3c(N)ncnn23)[C@H](O)[C@@H]1O)Oc1ccccc1 [Remdesivir]	–	0.1
